Laboratory results as given in patent US20090148424A1, “Reversibly immortalized mammalian liver cells and use thereof” (priority 2004, published 2009).

How the values were obtained:
[1] = test system: CYNK-1 cell; assay: Ganciclovir sensitivity of CYNK-1 cell (MTT assay); format: cell-based, human; conditions: one-week cultivation with 5 μM of GCV
Source text: (§1) Two hundred CYNK-1 cells (deposited with International Patent Organism Depository, National Institute of Advanced Industrial Science and Technology, address: AIST Tsukuba Central 6, 1-1, Higashi 1-Chome, Tsukuba-shi, Ibaraki-ken, 305-8566 Japan, deposited date: Mar. 10, 2004, accession number: FERM BP-08657) were inoculated in a 96-well plate, cultured in CS-C serum free culture medium alone or CS-C serum free culture media containing various concentrations of ganciclovir (5, 10, 20, 50 or 100 μM) and then cell proliferation was investigated by MTT assay (see Mcsmann T. J., Immunol. Methods, 65, 55, 1983).
Cell viability is shown in FIG. 7 as relative sensitivity. Ganciclovir sensitivity of the CYNK-1 cell (deposited with International Patent Organism Depository, National Institute of Advanced Industrial Science and Technology, address: AIST Tsukuba Central 6, 1-1, Higashi 1-Chome Tsukuba-shi, Ibaraki-ken, 305-8566 Japan, deposited date: Mar. 10, 2004, accession number: FERM BP-08657) depends on the concentration of ganciclovir.

[2] = test system: reverted CYNK-1 cells; assay: Ganciclovir sensitivity of reverted CYNK-1 cells; format: cell-based, human
Source text: as §1, with “[…].,” for “Mcsmann T. J.,”, “1983). […] All of the cells died within 10 days.” for “1983).”

Compound: Nc1nc(O)c2ncn(COC(CO)CO)c2n1 [GCV, ganciclovir]
- effect on cell proliferation / viability [1]: stopped cell proliferation and some of the cells died
- time until all of the cells died ([2]; 5 μM of GCV): ≤ 10 days
- effect on cell proliferation / viability ([2]; one-week cultivation in the presence of 5 μM of GCV): stopped cell proliferation and some of the cells died
